Data on two compounds can be found in US9890400B2, “Method of production of 2,4-dihydroxybutyric acid” (ADISSEO FRANCE S.A.S., priority 2012, dated 2018).

Substitutions are numbered along the chain they refer to.

The test system of one test is malic enzyme. Particulars: Rognstad & Katz, 1979; cited from earlier work.
Test [1] concerns the target T1, Metallosphaera sedula succinic semialdehyde reductase (Ms-SSR) mutant H39R, SEQ ID No. 32 (Metallosphaera sedula, UniProt A4YGN0, H39R).
T1 sequence (A4YGN0 1-360 H39R): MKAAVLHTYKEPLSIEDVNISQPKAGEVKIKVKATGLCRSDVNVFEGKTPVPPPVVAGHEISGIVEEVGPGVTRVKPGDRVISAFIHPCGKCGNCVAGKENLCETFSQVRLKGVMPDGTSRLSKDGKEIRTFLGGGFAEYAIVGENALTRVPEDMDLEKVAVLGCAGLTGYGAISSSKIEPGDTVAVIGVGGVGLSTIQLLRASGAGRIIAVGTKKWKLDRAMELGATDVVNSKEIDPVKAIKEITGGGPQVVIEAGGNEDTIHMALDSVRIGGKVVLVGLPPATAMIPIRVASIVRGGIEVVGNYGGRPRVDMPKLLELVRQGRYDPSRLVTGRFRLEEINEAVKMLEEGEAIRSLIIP
In words: Malate semialdehyde reductase activity. Particulars: NADH or NADPH, pH 7.5, 30° C., average of at least two independent experiments. It counts as biochemical. Here is the method: (§1) Test for Malate Semialdehyde Reductase Activity: (L)-Malate semialdehyde+NAD(P)H→(L)-2,4-dihydroxybutyric acid+NAD(P) Reaction scheme:
(§2) The assay mixture contained 200 mM Hepes (pH 7.5), 50 mM KCl, 5 mM MgCl2, 0.24 mM NADH or NADPH, and appropriate amounts of purified enzyme or cell extract. Reactions were started by adding 10 mM (L)-malate semialdehyde (malate semialdehyde was prepared freshly for each test, see Example 3). Enzymatic assays were carried out at 30° C. in 96-well flat bottomed microtiter plates in a final volume of 250 μL. The reactions were followed by the characteristic absorption of NAD(P)H at 340 nm (εNADPH=6.22 mM^−1 cm^−1) in a microplate reader (BioRad 680XR).
(§3) Site-directed mutagenesis was carried out using the oligonucleotide pairs listed in Table 6 and the pET28-Mse-SSR plasmid as the template. Point mutations to change the amino acid sequences were introduced by PCR (Phusion 1U, HF buffer 20% (v/v), dNTPs 2.5 mM, direct and reverse primers 1 μM each, template plasmid 200 ng, water). When possible, plasmids created by PCR contained new restriction sites (introduced using silent mutations) in addition to the functional mutation to facilitate identification of mutated clones. The PCR products were digested by DpnI at 37° C. for 2×2 h to remove template DNA, and transformed into NEB DH5-α competent E. coli cells (NEB). The mutated plasmids were identified by restriction site analysis and verified to carry the desired mutations by DNA sequencing.

For test [2], the target named is T2, Metallosphaera sedula succinic semialdehyde reductase (Ms-SSR) mutant N43H, SEQ ID No. 34 (Metallosphaera sedula, UniProt A4YGN0, N43H).
T2 sequence (A4YGN0 1-360 N43H): T1 sequence (A4YGN0 1-360 H39R) with R39H, N43H
Description: Malate semialdehyde reductase activity. It counts as biochemical. Particulars: NADH or NADPH, pH 7.5, 30° C., average of at least two independent experiments. The procedure: as §1, §2, §3

The target in test [3] is T3, Metallosphaera sedula succinic semialdehyde reductase (Ms-SSR) double mutant H39R N43H, SEQ ID No. 36 (Metallosphaera sedula, UniProt A4YGN0, H39R/N43H).
T3 sequence (A4YGN0 1-360 H39R/N43H): T1 sequence (A4YGN0 1-360 H39R) with N43H
In words: Malate semialdehyde reductase activity. Particulars: NADH or NADPH, pH 7.5, 30° C., average of at least two independent experiments. It counts as biochemical. Here is the method:
as §1, §2, §3

Test [4] deals with T4, Metallosphaera sedula succinic semialdehyde reductase (Ms-SSR), wild type, SEQ ID No. 16 (Metallosphaera sedula, UniProt A4YGN0).
T4 construct: full length 360 aa
T4 sequence (A4YGN0 1-360): T1 sequence (A4YGN0 1-360 H39R) with R39H
In words: Malate semialdehyde reductase activity. It counts as biochemical. Particulars: NADH or NADPH, pH 7.5, 30° C., average of at least two independent experiments. The procedure:
To identify a suitable 2,4 DHB dehydrogenase, beta-hydroxyacid dehydrogenases from different biological sources were tested for their ability to reduce malate semialdehyde. […] The genes YPR1, 4hbdh, yqhD, and Ms-SSR were amplified using primers listed in Table 5 and cloned into vector pET28 (restriction enzymes see Table 5) yielding plasmids pET28-Sce-YPR1, pET28-Pgi-4-hbdh, pET28-Eco-yqhd and pET28-Mse-SSR, respectively. The proteins were expressed and purified as described in Example 1.
as §1, §2

On to `O=C(O)[C@@H](O)CCO` [2,4-DHB, 2,4-dihydroxybutyric acid], for which, in the test with malic enzyme, the “inhibition of malic enzyme” value is recorded as “competitive inhibitor”.

On to `O=CC[C@H](O)C(=O)O` [malate semialdehyde, (L)-malate semialdehyde], for which the Maximum activity is listed as 1.7 μmol/(min * mgprot) in test [1], 4.3 μmol/(min * mgprot) in test [2], 4.7 μmol/(min * mgprot) in test [3] and 4.9 μmol/(min * mgprot) in test [4].
